“And” between values parts separate entries of the source, which are not always exact repeats. Equal entries are not always repeated. Where two headings read alike, the source gives them in different places.
Tests used:
[1] = system: EAE
Text: EAE was induced in Lewis rats by the injection of guinea pig spinal cord homogenate in CFA into the hind legs.

[2] = system: Th2; details: cited from earlier work
[3] = system: EAE; details: enteric-coated tablets
Text: As in Example 3B, observation began on day 8 and continued until the conclusion of the experiment, which, in this case, was day 57. […] EAE-related neurological signs appeared between day 14 and 54 as specified in Table 9. Animals were sacrificed when they reached score 4.

[4] = system: exacerbating-remitting multiple sclerosis; details: daily subcutaneous injections, phase III; cited from earlier work
[5] = system: IL-2; details: cited from earlier work
[6] = system: experimental allergic encephalomyelitis (EAE); details: cited from earlier work
[7] = system: EAE; details: monkey, in vivo
[8] = system: IFN-γ; details: cited from earlier work
[9] = system: T cell; details: Aharoni et al. 1997; cited from earlier work
[10] = system: Chronic-relapsing EAE
Text: Chronic—relapsing EAE was induced in female Biozzi mice by the injection of mouse spinal cord homogenate (MSCH) in CFA, following by re-injection of the encephalitogen one week later, in the same manner.

[11] = system: Experimental allergic Encephalomyelitis (EAE)
Description: Rhesus monkeys were fed with the enteric coated capsules. 5 feedings before disease induction and 5 feedings after disease induction, on alternate days. Experimental allergic Encephalomyelitis (EAE) was induced by injecting 8 mg myelin basic protein (MBP) in complete Freund's adjuvant (CFA) intra-dermally into the leg. EAE symptoms were evaluated on the following scale:
Evaluation of EAE clinical signs

[12] = system: IL-2; details: oral, enteric coated capsules, MS patients
[13] = system: IL-10; details: oral, enteric coated capsules, MS patients
[14] = system: relapsing-remitting form of EAE; assay: Induction of relapsing-remitting EAE in Cynamologus monkeys by MBP in CFA; format: in vivo
Description: A relapsing-remitting form of EAE was induced by the injection of emulsified MBP in CFA containing 3 mg/ml of Mycobacterium Tuberculosis (MT), intradermally into right & left footpads.
Observation was initiated on day 8.

[15] = all dose groups, daily gavage of solution
[16] = oral solution daily from day 16

L-glutamic acid polymer with L-alanine, L-lysine and L-tyrosine, acetate (salt) [Copolymer 1]
% of sick rats [1, 15]: reduced
disease duration [1, 15]: reduced
disease onset [1, 15]: delayed
severity of disease (mean score and mean maximal score) [1, 15]: reduced
effect on EAE ([1]; solution 0.1-10 mg/kg by gavage every day from induction to day 24): inhibited
beneficial Th2 anti-inflammatory response [2]: induced
Incidence ([3]; 10 mg group): 3/3
Mean Disease Onset Day ([3]; 10 mg group): 30
Mean Maximal Score ([3]; 10 mg group): 2.33
Mean Score ([3]; 10 mg group): 1.3 ± 0.56
Incidence ([3]; 20 mg group): 3/3
Mean Disease Onset Day ([3]; 20 mg group): 30
Mean Maximal Score ([3]; 20 mg group): 2.33
Mean Score ([3]; 20 mg group): 1.6 ± 0.53
effect on incidence of the disease ([3]; 10 and 20 mg): does not change the incidence of the disease
most effective dosage ([3]; 10 and 20 mg tested, confirms Example 3B): 10 mg
progression of disability [4]: slow
relapse rate [4]: reduce
pro-GVHD IL-2 cytokine secretion [5]: prevented
effect on EAE ([6]; induced by various encephalitogens including MSCH, MBP, PLP, MOG): suppress
activity by injection ([6]; injected subcutaneously, intra-peritoneally, intravenously or intramuscularly): active
Daily Clinical Score [7]: 2
Incidence [7]: 3/3 and 1/3
Mean Disease Onset Day [7]: 14.33 and 18.33 and 23
most effective dosage [7]: 10 mg
pattern of disease compared with placebo group [7]: no obvious improvement
pro-GVHD IFN-γ cytokine secretion [8]: prevented
T cell proliferation in response to host cell [9]: inhibited
EAE clinical symptoms of the second relapse ([10]; oral solution 0.5, 2.5, 12.5 mg/kg/day from day 16, dose-dependent): reduced
incidence of second relapse, severity of symptoms, duration of relapse [10, 16]: suppressive effect was demonstrated in all parameters checked
most effective dose [10, 16]: 12.5 mg/kg
signs of EAE ([11]; 20 mg in enteric coated capsules, 5 feedings before and 5 after induction on alternate days, first study (FIG. 1), one animal): did not develop any signs of disease till day 60
course of EAE upon treatment with 20 mg capsules ([11]; animal first treated with 1 mg capsules, then 20 mg enteric coated capsules): healed completely
outcome of EAE ([11]; second study (FIG. 2), capsules not gastro-protective (opened in the stomach)): died from the disease
protection from EAE ([11]; second study (FIG. 2), enteric coated capsules 1, 10 and 20 mg): fully protected from EAE
change of IL-2 [12]: decrease
change of IL-10 [13]: increase

B1: MBP: myelin basic protein, natural component of the myelin sheath, injected in CFA to induce EAE (protein, UniProt P02686 1-304, looked up)
Myelin basic protein: MGNHAGKRELNAEKASTNSETNRGESEKKRNLGELSRTTSEDNEVFGEADANQNNGTSSQDTAVTDSKRTADPKNAWQDAHPADPGSRPHLIRLFSRDAPGREDNTFKDRPSESDELQTIQEDSAATSESLDVMASQKRPSQRHGSKYLATASTMDHARHGFLPRHRDTGILDSIGRFFGGDRGAPKRGSGKDSHHPARTAHYGSLPQKSHGRTQDENPVVHFFKNIVTPRTPPPSQGKGRGLSLSRFSWGAEGQRPGFGYGGRASDYKSAHKGFKGVDAQGTLSKIFKLGGRDSRSGSPMARR
Daily Clinical Score ([14]; Female Z-920, dose 2.5 mg, columns = days 14-32 after induction): 3 and 5
Daily Clinical Score ([14]; Male Z-701, dose 10 mg, columns = days 14-32): 0
Daily Clinical Score ([14]; Male Z-1669, dose 5 mg, columns = days 14-32): 0
